Paper PMC11162475, “Rule-based omics mining reveals antimicrobial macrocyclic peptides against drug-resistant clinical isolates” (Nature Communications, 2024)
In brackets after ≈: the same amount, converted by molar mass. Blank lines part the entries; values can stand above or below the compound they belong to.

How the values were obtained:
MRSA 15-1 = assay: microbe, parasite or virus in culture; assay type: cell-based, Staphylococcus aureus; conditions: Staphylococcus aureus; MRSA 15-1 (methicillin-resistant S. aureus); determined by Sichuan Primed Shines Bio-tech, similar protocol; read-out: MIC
Procedure: (§1) For MIC determination, Staphylococcus aureus ATCC25923, Bacillus subtilis 168, Micrococcus luteus DSM1790, Enterococcus faecalis OG1RF, Enterococcus faecium MCC2763, Escherichia coli DH5α and Pseudomonas aeruginosa PAO1 were used as indicator strains. Nisin and vancomycin were used as positive controls. A dilution series of massatide A, massatide B, vancomycin (16, 8, 4, 2, 1, 0.5, 0.25, 0.125, 0.0625, 0.0313 μg/mL) and sistertide A1, kebanetide A1, kebanetide A2, nisin (64, 32, 16, 8, 4, 2, 1, 0.5, 0.25, 0.125 μg/mL) were prepared in 96-well plate from 1–10th column. The indicator strains were added to the compound-containing well. The indicator strain culture with no antibiotics was prepared in the 11th column. The 12th column was filled with 200 μL empty MHB medium. The 96-well plate was incubated at 37 °C for 20 h (30 °C for M. luteus and B. subtilis). The OD600 was detected on MULTISKAN Sky (Thermo Scientific) and MIC values were determined. The MIC values of clinical isolates were determined by Sichuan Primed Shines Bio-tech Co., Ltd. (China) following similar protocol. Levofloxacin was used as a positive control.

MRSA ATCC43300 = assay: microbe, parasite or virus in culture; assay type: cell-based, Staphylococcus aureus; conditions: Staphylococcus aureus; MRSA ATCC43300; determined by Sichuan Primed Shines Bio-tech, similar protocol; read-out: MIC
Procedure: as §1

LRSA 20-1 = assay: microbe, parasite or virus in culture; assay type: cell-based, Staphylococcus aureus; conditions: Staphylococcus aureus; LRSA 20-1 (linezolid-resistant S. aureus); determined by Sichuan Primed Shines Bio-tech, similar protocol; read-out: MIC
Procedure: as §1

VMSA ATCC700788 = assay: microbe, parasite or virus in culture; assay type: cell-based, Staphylococcus aureus; conditions: Staphylococcus aureus; VMSA ATCC700788 (vancomycin-intermediate S. aureus); determined by Sichuan Primed Shines Bio-tech, similar protocol; read-out: MIC
Procedure: as §1

MRSA ATCC33591 = assay: microbe, parasite or virus in culture; assay type: cell-based, Staphylococcus aureus; conditions: Staphylococcus aureus; MRSA ATCC33591; determined by Sichuan Primed Shines Bio-tech, similar protocol; read-out: MIC
Procedure: as §1

VMSA ATCC700699 = assay: microbe, parasite or virus in culture; assay type: cell-based, Staphylococcus aureus; conditions: Staphylococcus aureus; VMSA ATCC700699 (vancomycin-intermediate S. aureus); determined by Sichuan Primed Shines Bio-tech, similar protocol; read-out: MIC
Procedure: as §1

LREfa 20-1 = assay: microbe, parasite or virus in culture; assay type: cell-based, Enterococcus faecalis; conditions: Enterococcus faecalis, 201; LREfa 20-1 (linezolid-resistant E. faecalis); determined by Sichuan Primed Shines Bio-tech, similar protocol; read-out: MIC
Procedure: as §1

VREfa ATCC51575 = assay: microbe, parasite or virus in culture; assay type: cell-based, Enterococcus faecalis; conditions: Enterococcus faecalis; VREfa ATCC51575 (vancomycin-resistant E. faecalis); determined by Sichuan Primed Shines Bio-tech, similar protocol; read-out: MIC
Procedure: as §1

[1] = system: Klebsiella pneumoniae 15-1; assay: microbe, parasite or virus in culture; assay type: cell-based; conditions: 151; Klebsiella pneumoniae 15-1; determined by Sichuan Primed Shines Bio-tech, similar protocol; read-out: MIC
Procedure: as §1

[2] = system: Acinetobacter baumannii 20-1; assay: microbe, parasite or virus in culture; assay type: cell-based; conditions: 201; Acinetobacter baumannii 20-1; determined by Sichuan Primed Shines Bio-tech, similar protocol; read-out: MIC
Procedure: as §1

[3] = system: Enterococcus faecalis 19-1; assay: microbe, parasite or virus in culture; assay type: cell-based; conditions: 191; Enterococcus faecalis 19-1; determined by Sichuan Primed Shines Bio-tech, similar protocol; read-out: MIC
Procedure: as §1

[4] = system: Acinetobacter baumannii 20-2; assay: microbe, parasite or virus in culture; assay type: cell-based; conditions: 202; Acinetobacter baumannii 20-2; determined by Sichuan Primed Shines Bio-tech, similar protocol; read-out: MIC
Procedure: as §1

[5] = system: Klebsiella pneumoniae ATCC700603; assay: microbe, parasite or virus in culture; assay type: cell-based; conditions: Klebsiella pneumoniae ATCC700603; determined by Sichuan Primed Shines Bio-tech, similar protocol; read-out: MIC
Procedure: as §1

[6] = system: Staphylococcus aureus ATCC25923; assay: Kirby-Bauer assay, zone of inhibition (agar well); assay type: cell-based; conditions: S. aureus ATCC25923; 10 μL of 3.2 mg/mL DMSO stock in well of soft LB agar, 37 °C, 20 h
Procedure: (§2) The stock solution of massatide A (1) and B (1a) 3.2 mg/mL were prepared in DMSO. 40 μL overnight culture of Micrococcus luteus DSM1790 was added to 20 mL soft Luria-Bertani agar (1% agar), and then poured into a plate. 10 μL tip was used to make two wells on the plate. 10 μL massatide A (1) or B (1a) solution was added in one of the wells, while in the other well, 10 μL DMSO was added as a negative control. The plates were incubated at 30 °C for 20 h to observe the zone of inhibition. Staphylococcus aureus ATCC25923 was also used to observe the inhibition zone using a similar method. The only difference is incubating at 37 °C. Stock solutions of sistertide A1, kebanetide A1 and A2 were 3.2 mg/mL, 1.6 mg/mL and 1.6 mg/mL, respectively. The method to observe the activity of these compounds individually was the same as that of massatide.

[7] = system: Micrococcus luteus DSM1790; assay: Kirby-Bauer assay, zone of inhibition (agar well); assay type: cell-based; conditions: M. luteus DSM1790; 10 μL DMSO stock (3.2 or 1.6 mg/mL) in well of soft LB agar, 30 °C, 20 h
Procedure: as §2

[8] = Mammalian cytotoxicity, CCK-8 assay; assay type: cell-based; conditions: human
Procedure: (§3) Bioactivity assay of the crude extract
(§4) Protease stability of massatide A
(§5) Thermal stability of massatide A […]
(§6) and 1% penicillin -streptomycin. […]
(§7) and CO 2-controllable incubator with 5% CO 2. All the cell experiments were performed […]
(§8) Cell viability was determined by the CCK -8 assay. HeLa and Hek -293T cells were […]
(§9) µg/ml. At the end of the fixed incubation period (24 h), cells were washed with PBS to remove excess compound. We added 100 µl fresh medium and 10 µl CCK-8 reagent.
(§10) After 2 h incubation at 37°C, absorbance at 450 nm was recorded using a microplate reader. All experiments were performed in triplicate (n=3 independent experiments).
(§11) Growth kinetics of S. aureus
(§12) Massatide A or B was prepared in a 96-well plate at the concentration of 8×MIC, 4×MIC, 2×MIC, 1×MIC and 0.5×MIC , respectively. The MHB medium with no compound was used as a control. Then, the overnight culture of S. aureus ATCC 25923 cells was added to the medium at 1:1,000. The plate was incubated with shaking in SpectraMax iD3 (MOLECULAR DEVICES) at 30 ℃. OD600 was measured every 30 min for 36 hours. To analyze the lysis, 1mL of S. aureus ATCC 25923 culture (OD600 1.0) was treated with massatide A or vancomycin (10×MIC) for 24h. An untreated sample was used as a negative control.
(§13) Time-dependent killing assay
(§14) An overnight culture of S. aureus ATCC 25923 cells was diluted at 1:10,000 in MHB medium and incubated at 37 ℃, 200 rpm for 2 hours to reach the early exponential.
(§15) Then, massatide A or vancomycin was added to the culture at the concentration of 10×MIC. Bacteria were still cultivated at 37 ℃, 200 rpm. Culture with no antibiotics was used as a negative control. 10 μL aliquots were removed at intervals, centrifuged, and resuspended in 1 ml PBS. Serially diluted (10-fold) suspensions were plated on MHB agar and incubated at 37 ℃ overnight for counting of colony-forming units.
(§16) Experiments were performed in triplicate.
(§17) Sequential culturing of S. aureus ATCC 25923 was performed in the presence of a subinhibitory concentration of massatide A to observe whether the resistance developed. […]

HeLa cells = assay: Mammalian cytotoxicity, CCK-8 assay; assay type: cell-based
Procedure: as §3, §4, §5, §6, §7, §8, §9, §10, §11, §12, §13, §14, §15, §16, §17

Escherichia coli DH5α = assay type: cell-based; conditions: DH5α, 20 h
Procedure: as §1

[9] = system: Pseudomonas aeruginosa PAO1; assay type: cell-based; conditions: PAO1, 20 h
Procedure: as §1

[10] = system: Staphylococcus aureus ATCC25923; assay: microbe, parasite or virus in culture; assay type: cell-based; conditions: ATCC25923, 20 h
Procedure: as §1

[11] = system: Micrococcus luteus DSM1790; assay: microbe, parasite or virus in culture; assay type: cell-based; conditions: DSM1790, 20 h
Procedure: as §1

[12] = system: Enterococcus faecalis OG1RF; assay: microbe, parasite or virus in culture; assay type: cell-based; conditions: OG1RF, 20 h
Procedure: as §1

Bacillus subtilis 168 = assay: microbe, parasite or virus in culture; assay type: cell-based; conditions: 168, 20 h
Procedure: as §1

[13] = system: Enterococcus faecium MCC2763; assay: microbe, parasite or virus in culture; assay type: cell-based; conditions: MCC2763, 20 h
Procedure: as §1

MIC (MRSA 15-1): 16 µg/mL (≈ 44.3 µM)
MIC (MRSA ATCC43300): 0.25 µg/mL (≈ 0.692 µM)
MIC (LRSA 20-1): 32 µg/mL (≈ 88.6 µM)
MIC (VMSA ATCC700788): 32 µg/mL (≈ 88.6 µM)
MIC (MRSA ATCC33591): 0.25 µg/mL (≈ 0.692 µM)
MIC (VMSA ATCC700699): 64 µg/mL (≈ 177 µM)
MIC (LREfa 20-1): 32 µg/mL (≈ 88.6 µM)
MIC (VREfa ATCC51575): 0.5 µg/mL (≈ 1.38 µM)
MIC [1]: 0.25 µg/mL (≈ 0.692 µM)
MIC [2]: 8 µg/mL (≈ 22.1 µM)
MIC [3]: 1 µg/mL (≈ 2.77 µM)
MIC [4]: 0.06 µg/mL (≈ 0.166 µM)
MIC [5]: 0.5 µg/mL (≈ 1.38 µM)
Structure (SMILES): C[C@H]1COc2c(N3CCN(C)CC3)c(F)cc3c(=O)c(C(=O)O)cn1c23 [Levofloxacin, reference compound]

MIC (Escherichia coli DH5α): >64 µg/mL
MIC [9]: >64 µg/mL
MIC [10]: 1 µg/mL (≈ 0.612 µM)
MIC [11]: 0.25 µg/mL (≈ 0.153 µM)
MIC [12]: 4 µg/mL (≈ 2.45 µM)
MIC (Bacillus subtilis 168): 4 µg/mL (≈ 2.45 µM)
MIC [13]: 4 µg/mL (≈ 2.45 µM)
Structure (SMILES): C/C=C1\NC(=O)C(N(C)C)C(C)SC[C@@H](C(=O)N/C(=C\C)C(=O)N[C@H](C(=O)N[C@@H](C)C(=O)N[C@H](C)C(=O)N[C@@H](Cc2ccccc2)C(=O)N[C@@H](C)C(=O)NC2C(=O)NCC(=O)N[C@@H](Cc3ccc(O)cc3)C(=O)N[C@@H](Cc3ccccc3)C(=O)N[C@H](C)C(=O)N/C=C\SC2C)C(C)C)NC(=O)[C@@H]2CCCN2C(=O)[C@H](C(C)C)NC1=O (stereo partly drawn) [Massatide B (1a), massatide B]
inhibitory activity (zone of inhibition) [6]: strong inhibitory activity
inhibitory activity (zone of inhibition) [7]: strong inhibitory activity
IC50 at 24 h [8]: > 200 µg/mL
cytotoxicity against Hela cells (HeLa cells): did not exhibit any significant cytotoxicity
